# Reference: patent US8192962B2, “Processes for detecting toxic substances” (Daikin Industries, Ltd., priority 2001, dated 2012)
# Tested on: Mitochondria-located protein genes
# Assay: DNA chip mRNA expression in yeast, mitochondria-located protein genes (Table 2)
# Format: cell-based, Saccharomyces cerevisiae S288C
# Settings: cells incubated two hours with the chemical substance
# Summary of the method: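 First, S288C yeast grown in YPD at 25° C. are dosed in log phase with one toxicant (growth-inhibiting, not lethal) for 2 h. Next, total RNA is extracted and poly(A) mRNA isolated and reverse-transcribed with Cy3/Cy5-dUTP. Finally, whole-genome chip fluorescence is read relative to unexposed cells.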
smiles,measurement,setting,value
"S=C([S-])NCCNC(=S)[S-].[Zn+2] [(11), zinc N,N′-ethylenebis(dithiocarbamate)]",The level of expressed mRNA in the presence of chemical substance/The level of expressed mRNA in the absence of chemical substance,yeast gene YJR121W,0.9
same,The level of expressed mRNA in the presence of chemical substance/The level of expressed mRNA in the absence of chemical substance,yeast gene YKL003C,1.7
same,The level of expressed mRNA in the presence of chemical substance/The level of expressed mRNA in the absence of chemical substance,yeast gene YKL016C,1.3
same,The level of expressed mRNA in the presence of chemical substance/The level of expressed mRNA in the absence of chemical substance,yeast gene YKL141W,1.2
same,The level of expressed mRNA in the presence of chemical substance/The level of expressed mRNA in the absence of chemical substance,yeast gene YKL142W,2.0
same,The level of expressed mRNA in the presence of chemical substance/The level of expressed mRNA in the absence of chemical substance,yeast gene YKL148C,1.5
same,The level of expressed mRNA in the presence of chemical substance/The level of expressed mRNA in the absence of chemical substance,yeast gene YKL170W,0.7
same,The level of expressed mRNA in the presence of chemical substance/The level of expressed mRNA in the absence of chemical substance,yeast gene YKL194C,1.6
same,The level of expressed mRNA in the presence of chemical substance/The level of expressed mRNA in the absence of chemical substance,yeast gene YKR066C,1.3
same,The level of expressed mRNA in the presence of chemical substance/The level of expressed mRNA in the absence of chemical substance,yeast gene YLL041C,1.3
same,The level of expressed mRNA in the presence of chemical substance/The level of expressed mRNA in the absence of chemical substance,yeast gene YLR038C,1.4
same,The level of expressed mRNA in the presence of chemical substance/The level of expressed mRNA in the absence of chemical substance,yeast gene YLR259C,3.0
same,The level of expressed mRNA in the presence of chemical substance/The level of expressed mRNA in the absence of chemical substance,yeast gene YLR295C,1.3
same,The level of expressed mRNA in the presence of chemical substance/The level of expressed mRNA in the absence of chemical substance,yeast gene YLR304C,1.6
same,The level of expressed mRNA in the presence of chemical substance/The level of expressed mRNA in the absence of chemical substance,yeast gene YLR348C,1.3
same,The level of expressed mRNA in the presence of chemical substance/The level of expressed mRNA in the absence of chemical substance,yeast gene YLR395C,1.5
same,The level of expressed mRNA in the presence of chemical substance/The level of expressed mRNA in the absence of chemical substance,yeast gene YML054C,1.4
same,The level of expressed mRNA in the presence of chemical substance/The level of expressed mRNA in the absence of chemical substance,yeast gene YML120C,1.3
same,The level of expressed mRNA in the presence of chemical substance/The level of expressed mRNA in the absence of chemical substance,yeast gene YML129C,1.2
same,The level of expressed mRNA in the presence of chemical substance/The level of expressed mRNA in the absence of chemical substance,yeast gene YMR023C,0.8
same,The level of expressed mRNA in the presence of chemical substance/The level of expressed mRNA in the absence of chemical substance,yeast gene YMR035W,1.5
same,The level of expressed mRNA in the presence of chemical substance/The level of expressed mRNA in the absence of chemical substance,yeast gene YMR083W,1.6
same,The level of expressed mRNA in the presence of chemical substance/The level of expressed mRNA in the absence of chemical substance,yeast gene YMR089C,1.3
same,The level of expressed mRNA in the presence of chemical substance/The level of expressed mRNA in the absence of chemical substance,yeast gene YMR152W,1.2
same,The level of expressed mRNA in the presence of chemical substance/The level of expressed mRNA in the absence of chemical substance,yeast gene YMR203W,2.3
same,The level of expressed mRNA in the presence of chemical substance/The level of expressed mRNA in the absence of chemical substance,yeast gene YMR267W,1.0
same,The level of expressed mRNA in the presence of chemical substance/The level of expressed mRNA in the absence of chemical substance,yeast gene YNL055C,1.9
same,The level of expressed mRNA in the presence of chemical substance/The level of expressed mRNA in the absence of chemical substance,yeast gene YNL071W,1.6
same,The level of expressed mRNA in the presence of chemical substance/The level of expressed mRNA in the absence of chemical substance,yeast gene YNL073W,1.1
same,The level of expressed mRNA in the presence of chemical substance/The level of expressed mRNA in the absence of chemical substance,yeast gene YNL104C,2.1
same,The level of expressed mRNA in the presence of chemical substance/The level of expressed mRNA in the absence of chemical substance,yeast gene YNL256W,0.6
same,The level of expressed mRNA in the presence of chemical substance/The level of expressed mRNA in the absence of chemical substance,yeast gene YOL096C,1.2
same,The level of expressed mRNA in the presence of chemical substance/The level of expressed mRNA in the absence of chemical substance,yeast gene YOR020C,2.5
same,The level of expressed mRNA in the presence of chemical substance/The level of expressed mRNA in the absence of chemical substance,yeast gene YOR037W,1.2
same,The level of expressed mRNA in the presence of chemical substance/The level of expressed mRNA in the absence of chemical substance,yeast gene YOR100C,1.4
same,The level of expressed mRNA in the presence of chemical substance/The level of expressed mRNA in the absence of chemical substance,yeast gene YOR130C,0.6
same,The level of expressed mRNA in the presence of chemical substance/The level of expressed mRNA in the absence of chemical substance,yeast gene YOR142W,1.5
same,The level of expressed mRNA in the presence of chemical substance/The level of expressed mRNA in the absence of chemical substance,yeast gene YOR150W,1.0
same,The level of expressed mRNA in the presence of chemical substance/The level of expressed mRNA in the absence of chemical substance,yeast gene YOR176W,1.4
same,The level of expressed mRNA in the presence of chemical substance/The level of expressed mRNA in the absence of chemical substance,yeast gene YOR187W,1.4
same,The level of expressed mRNA in the presence of chemical substance/The level of expressed mRNA in the absence of chemical substance,yeast gene YOR316C,2.4
same,The level of expressed mRNA in the presence of chemical substance/The level of expressed mRNA in the absence of chemical substance,yeast gene YPL040C,0.9
same,The level of expressed mRNA in the presence of chemical substance/The level of expressed mRNA in the absence of chemical substance,yeast gene YPL134C,1.7
same,The level of expressed mRNA in the presence of chemical substance/The level of expressed mRNA in the absence of chemical substance,yeast gene YPL135W,1.3
same,The level of expressed mRNA in the presence of chemical substance/The level of expressed mRNA in the absence of chemical substance,yeast gene YPL215W,1.1
same,The level of expressed mRNA in the presence of chemical substance/The level of expressed mRNA in the absence of chemical substance,yeast gene YPL262W,1.4
same,The level of expressed mRNA in the presence of chemical substance/The level of expressed mRNA in the absence of chemical substance,yeast gene YPR024W,0.9
same,The level of expressed mRNA in the presence of chemical substance/The level of expressed mRNA in the absence of chemical substance,yeast gene YPR037C,0.9
same,The level of expressed mRNA in the presence of chemical substance/The level of expressed mRNA in the absence of chemical substance,yeast gene YPR047W,1.1
same,The level of expressed mRNA in the presence of chemical substance/The level of expressed mRNA in the absence of chemical substance,yeast gene YPR134W,1.3
